The test system of the data set is Rattus norvegicus. The following applies: oral.
Setting [1] is: subchronic, gavage, M, Sprague-Dawley, Clinical Observation: Salivation PtosisEmaciation Locomotor activity decrease + Body Weight Changes: Gain decrease + Blood Chemistry: TP ….
The mark [2] stands for this setting: short-term, duration: 28 days, gavage, F, Sprague-Dawley, Clinical Observation: Staggering gait + Body Weight Changes: decrease, Gain decrease + Urinalysis: pH decrease, Protein decrease, Volume ….
[3] abbreviates: short-term, duration: 28 days, gavage, M, Sprague-Dawley, Clinical Observation: Staggering gait + Body Weight Changes: decrease, Gain decrease + Urinalysis: pH decrease, Protein decrease, Volume ….
[4] abbreviates: short-term, duration: 28 days, gavage, F, Sprague-Dawley, Clinical Observation: Salivation Soft feces Diarrhea Soiled perigenital fur + Body Weight Changes: decrease, Gain decrease + Urinalysis: pH ….
Where [5] appears, read: short-term, duration: 28 days, gavage, M, Sprague-Dawley, Clinical Observation: Salivation Soft feces Diarrhea Soiled perigenital fur + Body Weight Changes: decrease, Gain decrease + Urinalysis: pH ….
[6] abbreviates: chronic, duration: 92 days, gavage, M/F, Fischer 344, Histopathology: Liver-Proliferation of smooth endoplasmic reticulum, parenchymal cell (Electron-microscopic examination) Liver-Decrease in ….

From EPA's ToxValDB 9.5 come the findings set out here.

As usually defined, the LOAEL is the lowest dose or exposure tested at which an adverse effect was seen. The term NOAEL denotes the highest dose or exposure tested at which no adverse effect was seen.

With `CCCCCCCCCCCCc1ccc(S(=O)(=O)[O-])cc1.COc1ccc(C[N+](C)(C)c2ccccc2)cc1`, the NOEL (short-term, duration: 28 days, gavage, M/F, Clinical Observation: Salivation + Urinalysis: Occult blood + Blood Chemistry: GPT increase, T-CHO increase, K increase, GOT increase, TG …) was 25 mg/kg-day.

`CC(O)COc1ccc(C(C)(C)c2ccc(OCC(C)O)cc2)cc1` (configuration not stated) [Bisphenol A bis(polypropylene glycol) ether]: under setting [1], the lowest observed adverse effect level (LOAEL) turned out to be 120 mg/kg-day, the LOEL was determined as 120 mg/kg-day, the NOAEL came out at 30 mg/kg-day and the NOEL amounted to 30 mg/kg-day.

The molecule `[O-][n+]1ccccc1[S-].[O-][n+]1ccccc1[S-].[Zn+2]` [Zinc pyrithione] registered an NOEL (subchronic, gavage, Sprague-Dawley) of 1 mg/kg-day.

In the case of `CCCCCCC[CH2][Sn]([CH2]CCCCCCC)([S]CC(=O)OCCCCCC(C)C)[S]CC(=O)OCCCCCC(C)C` [Dioctyltin-S,S'-bis(isooctylmercaptoacetate)], under “subchronic, duration: 13 weeks, diet, Sprague-Dawley”, the NOAEL worked out at 14.4 mg/kg-day.

Consider `O=C1OC(O)C(C(Cl)Cl)=C1Cl` (configuration not stated) [3-Chloro-4-(dichloromethyl)-5-hydroxy-2(5H)-furanone], for which the NOAEL (chronic, duration: 18 weeks, gavage, M/F, Wistar, Deaths + Clinical Observation: Emaciation Wheezy breathing Tangled fur Hypersalivation Dirty mouth surrounding Colored nostril discharges + …) is under 30 mg/kg-day.

As to `CC(C)CCCCCOC(=O)CCc1cc(C(C)(C)C)c(O)c(C(C)(C)C)c1`, the NOEL (short-term, duration: 28 days, gavage, M/F, Hematology: APTT increase + Organ Weight: Liver increase + Histopathology: Liver - Hypertrophy, centrilobular, hepatocyte Thyroid - …) was under 5 mg/kg-day.

`CC1OC(C)OC(C)O1` (configuration not stated) [Paraldehyde]: the NOEL (short-term, duration: 28 days, gavage, M/F, Sprague-Dawley, Clinical Observation: Locomotor activity decrease + Functional Observational Battery: Width of straddle increase + Relative Organ Weight: …) turned out to be 100 mg/kg-day.

In the case of `C=CN1CCCC1=O` [Vinylpyrrolidone], the NOAEL runs as follows: (subchronic, duration: 90 days, drinking water, M/F, Wistar, Water Consumption: decrease + Blood Chemistry: TP decrease, Glob decrease, Alb decrease + Absolute Organ Weight: Kidney increase) 4.56 mg/kg-day; (subchronic, duration: 90 days, gavage, M/F, Wistar, Food Consumption: decrease + Water Consumption: increase + Hematology: PLT increase + Absolute Organ Weight: Liver increase + Histopathology…) 60 mg/kg-day.

`CCCCCCCCCCCCCCCCCC[N+](C)(C)CCCCCCCCCCCCCCCCCC.[Cl-]` [Dimethyldioctadecylammonium chloride]: the NOAEL (short-term, duration: 28 days, gavage, M/F, Wistar, Body Weight Changes: Weight gain decrease + Hematology: WBC increase + Histopathology: Adrenal: Necrosis, cortex Adrenal: Granulocytes …) worked out at 100 mg/kg-day.

In the case of `S=C(SSSSC(=S)N1CCCCC1)N1CCCCC1` [Bis(piperidinothiocarbonyl) tetrasulphide], the NOEL (short-term, duration: 28 days, gavage, F, Sprague-Dawley, Histopathology: Kidney-Hyaline droplet, proximal tubular epithelium Kidney-Eosinophilic body, proximal tubular epithelium) was found to be 1000 mg/kg-day; the NOEL (short-term, duration: 28 days, gavage, M, Sprague-Dawley, Histopathology: Kidney-Hyaline droplet, proximal tubular epithelium Kidney-Eosinophilic body, proximal tubular epithelium) was found to be 100 mg/kg-day; the NOEL (subchronic, gavage, M, Sprague-Dawley, Clinical Observation: Light brown stool + Body Weight Changes: decrease, R) was 1000 mg/kg-day.

Consider `CO[Si](CCCOCC1CO1)(OC)OC` (configuration not stated) [Trimethoxy[3-(oxiran-2-ylmethoxy)propyl]silane], for which, under “short-term, duration: 28 days, gavage, Sprague-Dawley, Deaths: None (there were dead animals due to intubation error)”, the NOAEL is over 1000 mg/kg-day.

As to `Nc1ccc2cc(S(=O)(=O)O)ccc2c1` [6-Aminonaphthalene-2-sulfonic acid], where the note is “short-term, duration: 28 days, gavage, M/F, Urinalysis: pH decrease + Blood Chemistry: GOT increase”, the NOEL was determined as 300 mg/kg-day.

As for `COc1ccc(OC)c(Cl)c1` [2-Chloro-1,4-dimethoxybenzene], the LOEL runs as follows: under setting [2], 200 mg/kg-day; under setting [3], 200 mg/kg-day. Further, the NOEL runs as follows: under setting [2], 40 mg/kg-day; under setting [3], 40 mg/kg-day; (subchronic, gavage, M, Sprague-Dawley, Hematology: RBC decrease, MCV increase, MCH increase + Blood Chemistry: T-Cho increase, PL increase, Ca increase + Absolute Organ Weight: …) 30 mg/kg-day.

`ClC(Cl)(Cl)c1ccccc1` [Benzotrichloride]: the NOAEL (short-term, duration: 28 days, diet, M/F, CD, Blood Chemistry: SDH(sorbitol dehydrogenase) increase, LDH increase + Histopathology: Liver: Anisokaryosis associated with pyknosis, …) is under 0.5 ppm.

Turning to `O=C(O)C1CCC(c2ccc(Cl)cc2)CC1` (configuration not stated), where the note is “short-term, duration: 28 days, gavage, M/F, Deaths + Clinical Observation: Abnormal gait Lethargy Piloerection Ptosis + Blood Chemistry: GPT increase, ALP increase, TP increase, ALB …”, the NOEL is under 12 mg/kg-day.

Molecule `CC1(C)COC(=O)C1O` (configuration not stated) [2(3H)-Furanone, dihydro-3-hydroxy-4,4-dimethyl-] returned an NOAEL (short-term, duration: 28 days, gavage, M, Sprague-Dawley, Blood Chemistry: K increase) of 200 mg/kg-day.

With `C/C=C/C=C/C=O` [(2E,4E)-2,4-Hexadienal], the NOEL (chronic, duration: 14 weeks, gavage, M/F, Fischer 344, Clinical Observation: Hypersalivation + Body Weight Changes: decrease + Histopathology: Stomach/forestomach-Epithelium hyperplasia Stomach/…) turned out to be 15 mg/kg-day.

On to `Clc1ccc(OCOCC#CI)cc1` [1-Chloro-4-(((3-iodo-2-propynyl)oxy)methoxy)benzene], for which, under “subchronic, gavage, M, Sprague-Dawley, Clinical Observation: Salivation Loose stool + Body Weight Changes: decreaseor decrease(trend) + Food Consumption: decrease + Hematology: …”, the NOEL came to 8 mg/kg-day.

With `CCO[Si](CCCN)(OCC)OCC` [3-Aminopropyltriethoxysilane], the NOAEL (chronic, duration: 91 days, gavage, M/F, CD(SD), Deaths + Clinical Observation: Rales Wet and/or dried material (red, yellow, brown and/or clear) on various body surfaces Abnormal excreta…) was determined as 200 mg/kg-day.

`COc1cc(N=Nc2ccc3cc(S(=O)(=O)[O-])c(N=Nc4cc(OC)c(N=Nc5ccc(N)cc5S(=O)(=O)[O-])cc4OC)c(O)c3c2)c(OC)cc1N.[Na+].[Na+]`: for the setting “short-term, duration: 28 days, gavage, M/F, Body Weight Changes: Body weight gain decrease + Food Consumption: decrease + Hematology: GOT increase, GPT increase, TG decrease + Organ …”, the NOEL is 2 mg/kg-day.

`CC(=O)CC/C=C(\C)CC/C=C(\C)CC/C=C(\C)CCC=C(C)C` [Teprenone]: the NOEL (subchronic, gavage, M/F, Sprague-Dawley, Clinical Observation: Oily fur Unkempt fur Loss of fur Diarrhea + Body Weight Changes: decrease + Urinalysis: Cl increase, Ketone + …) is 62.5 mg/kg-day.

`O=C([O-])[C@H](O)[C@@H](O)[C@H](O)[C@H](O)CO.[Na+]` [Sodium D-gluconate]: the NOAEL came out at 4100 mg/kg-day (short-term, duration: 28 days, diet, CD(SD)); 5% (short-term, duration: 28 days, diet, Sprague-Dawley); 1000 mg/kg-day (short-term, duration: 28 days, gavage, M, CD(SD), Histopathology: Stomach: Thickening of the limiting ridge); 1000 mg/kg-day (short-term, duration: 28 days, gavage, M, CD(SD), Histopathology: Stomach: Thickening, limiting ridge).

Take `CCCCn1c(O)c(C#N)c(C)c(N=Nc2ccc([N+](=O)[O-])cc2Cl)c1=O`: the NOEL (short-term, duration: 28 days, gavage, M/F, Blood Chemistry: GOT increase, T-bil increase + Organ Weight: Liver increase) was found to be 250 mg/kg-day.

In the case of `COC(N)=O` [Methyl carbamate], the NOEL (subchronic, duration: 13 weeks, gavage, M/F, Fischer 344, Deaths + Body Weight Changes: decrease + Absolute Organ Weight: Liver decrease + Relative Organ Weight: Liver decrease + Histopathology: …) is 50 mg/kg-day.

In the case of `OC[C@@H](O)[C@@H](O[C@@H]1O[C@H](CO)[C@H](O)[C@H](O)[C@H]1O)[C@H](O)[C@@H](O)CO` [Lactitol], for the setting “subchronic, gavage, M/F, SLC:SD, Clinical Observation: Loose stool, Diarrhea Soiled fur, Salivation Abdominal distention + Body Weight Changes: decrease + Food Consumption: …”, the NOEL was under 625 mg/kg-day.

For the molecule `CC(Cl)CCCC(Cl)CCCC(Cl)CCCC(Cl)CCCC(Cl)CCCC(Cl)CCCl` (configuration not stated) [Chloro C22-26 alkanes], under “subchronic, duration: 13 weeks, gavage, F, Fischer 344, Histopathology: Liver-Granuloma inflammation”, the NOEL was under 235 mg/kg-day.

As for `Nc1ccc([N+](=O)[O-])cc1O` [2-Amino-5-nitrophenol], the NOEL (subchronic, duration: 13 weeks, gavage, M/F, Fischer 344, Deaths + Body Weight Changes: decrease + Absolute Organ Weight: Liver increase + Relative Organ Weight: Liver increase + Histopathology: …) is under 100 mg/kg-day.

As for `CC(C)c1cccc2ccccc12` [Isopropylnaphthalene], the LOEL worked out at 250 mg/kg-day under setting [4] and 250 mg/kg-day under setting [5]. Moreover, the NOEL turned out to be 50 mg/kg-day under setting [4] and 50 mg/kg-day under setting [5].

For the molecule `c1ccc2c(c1)[nH]c1ccccc12` [Carbazole], the NOEL (subchronic, gavage, M, Sprague-Dawley, Body Weight Changes: decrease + Blood Chemistry: T-Cho increase, PL increase, Glu decrease + Absolute Organ Weight: Liver increase, Kidney …) was found to be 25 mg/kg-day.

As to `CC1CC(C)(C)CC(c2ccc(O)cc2)(c2ccc(O)cc2)C1` (configuration not stated) [bisphenol TMC], under “short-term, duration: 28 days, gavage, M/F, Body Weight Changes: Weight gain decrease + Food Consumption: decrease + Water Consumption: increase + Urinalysis: Protein increase + …”, the NOEL was under 100 mg/kg-day.

For `CC/C=C\CCOC(=O)c1ccccc1O` [(3Z)-Hex-3-en-1-yl salicylate], the no-observed-adverse-effect level (NOAEL) (subchronic, duration: 42 days, gavage, M, Sprague-Dawley, Water Consumption: increase + Urinalysis: Volume increase, Osmo decrease + Hematology: RBC decrease, MCV increase, MCHC increase, RET …) was found to be 120 mg/kg-day.

Take `CC(O)CC(C)(C)O` (configuration not stated) [2-Methyl-2,4-pentanediol]: the NOAEL (subchronic, duration: 90 days, gavage, M/F, CD(SD), Deaths: None (there were dead animals by miss-dosing) + Water Consumption: increase + Urinalysis: pH decrease, S.G. increase + Hematology: …) came out at 450 mg/kg-day.

Consider `CN(C)C(=O)c1nc(CNC(=O)CN)n(-c2ccc(Cl)cc2C(=O)c2ccccc2Cl)n1.Cl` [Rilmazafone hydrochloride], for which, under setting [6], the NOAEL amounted to 25 mg/kg-day and the NOEL came to 1 mg/kg-day.

Regarding `C=C1C/C(=C/C)C(=O)O[C@@H]2CCN3CC=C(COC(=O)[C@@]1(O)CO)[C@H]23` [Riddelliine], the NOEL (subchronic, gavage, M/F, Fischer 344, Deaths + Body Weight Changes: decrease + Hematology: Ret increase Hct increase Hgb increase RBC increase Plt decrease, WBC increase Lymph …) was under 0.1 mg/kg-day.

Consider `CC(C)(C)c1cc(N=C(NO)c2ccc([N+](=O)[O-])cc2)n[nH]1`, for which the NOEL (short-term, duration: 28 days, gavage, M/F, Body Weight Changes: Weight gain decrease + Hematology: RET increase, RBC decrease, HGB decrease, WBC increase, MCV increase, MCH increase, …) is under 4 mg/kg-day.
